Results on one compound are retold here after patent publication EP0565593B1, “REDUCING PESTICIDAL INTERACTIONS IN CROPS” (priority 1990, dated 1992).

This assay has as its system Velvetleaf (VELE). The assay is described as follows: Greenhouse test Procedure VII (same examples). Type of assay: in vivo, Abutilon theophrasti. To be noted: Antidote + Biocide No. 1 in furrow. The text has this: This procedure describes interaction among herbicide, biocide and antidote when the biocide and the antidote is applied to a soil furrow containing crop seed before emergence of the crop and the herbicide is applied after emergence of the crop and weeds. The soil and planting depth was described in Procedure IV. The containers for comparison, the biocide and antidote applications to soil furrows were described in Procedure VI. In this procedure, the seed beds of the first, second, third and fourth containers are covered by soil layers not treated with herbicide. The containers were then placed on a bench in a greenhouse and subirrigated as required for the duration of the test. The herbicide, dispersed or dissolved in water containing 0.25% v/v nonionic surfactant (X-77) was applied by a track sprayer (187 L/ha) to the emerged plants of the second, third and fourth containers about five days after planting. All treatments were run in duplicate. Plant response was observed according to Procedure IV. Variations in this procedure will be noted in the examples.
In this example, tests were conducted according to Procedure VII for the POE application of the herbicides following in-furrow application of COUNTER® 15G insecticide (BIOCIDE No. 1) and the antidote on the pre-planted test seeds. In this test, the herbicides were Nos. 1 (MON-12000), 10 (ALLY®) and #4 (HARMONY®) and the Antidote Nos. 1, 7, 12 and 33.
These in-furrow treatments comprised a 50-50 mix of blended granules of COUNTER with and without 5G granular antidotes at 7.4 + 7.4 mg/cm or 1.1 + 0.37 mg active ingredient (a.i.)/cm. The in-furrow initiation of the test was followed five (5) days later with POE application of the herbicides; observations were made eight (8) days later. Table 38 […]

With `N#CCOc1ccc(Cl)c2cccnc12` [compound 33], the “% Inhibition VELE” value runs as follows: (Herbicide No. 1 0.14 Kg/Ha POE, 8 days after POE) 90%; (Herbicide No. 4 0.17 Kg/Ha POE, 8 days after POE) 90%; (Herbicide No. 5 0.07 Kg/Ha POE, 8 days after POE) 90%; (Herbicide No. 6 0.01 Kg/Ha POE) 65%; (Herbicide No. 7 0.56 Kg/Ha POE, 8 days after POE) 65%; (Herbicide No. 9 0.009 Kg/Ha POE) 85%. The “% Inhibition VELE” value is on record as 90% (Herbicide No. 10 0.002 Kg/Ha POE, 8 days after POE); 80% (Herbicide No. 15 0.0044 Kg/Ha POE, 8 days after POE); 40% (Herbicide No. 16 0.01 Kg/Ha POE); 65% (Herbicide No. 18 0.0044 Kg/Ha POE); 60% (Herbicide No. 19 0.28 Kg/Ha POE); 90% (Herbicide No. 21 0.14 Kg/Ha POE). Moreover, the “% Inhibition VELE” value (Herbicide No. 23 0.0006 Kg/Ha POE) was found to be 70%.
